PubChem BioAssay AID328 (DTP/NCI, 2004)
“And” between values parts separate entries of the source, which are not always exact repeats. Equal entries are not always repeated. Inconclusive results and toxic doses are left out.

Test system: BDF1 mice, P388 leukemia ip, median survival T/C
Test: NCI In Vivo Anticancer Drug Screen. Data for tumor model P388 Leukemia (intraperitoneal) in B6D2F1 (BDF1) mice
Details: endpoint: median survival time, higher = longer survival
Summary of the method: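 Antitumour effect was judged in vivo: survival in drug-treated mice, normalised to that of vehicle-dosed controls, gives the reported T/C.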

[1] = dose: 100.0 mg/kg/injection, schedule: Q04DX003 (ip), vehicle: Klucel (hydroxypropylcellulose) (HPC)
[2] = dose: 200.0 mg/kg/injection, schedule: Q04DX003 (ip), vehicle: Klucel (hydroxypropylcellulose) (HPC)
[3] = dose: 400.0 mg/kg/injection, schedule: Q04DX003 (ip), vehicle: Klucel (hydroxypropylcellulose) (HPC)
[4] = dose: 12.5 mg/kg/injection, schedule: Q01DX009 (ip), vehicle: saline with Tween-80
[5] = dose: 25.0 mg/kg/injection, schedule: Q01DX009 (ip), vehicle: saline with Tween-80
[6] = dose: 50.0 mg/kg/injection, schedule: Q04DX003 (ip), vehicle: saline with Tween-80
[7] = dose: 50.0 mg/kg/injection, schedule: Q01DX009 (ip), vehicle: saline with Tween-80
[8] = dose: 100.0 mg/kg/injection, schedule: Q01DX009 (ip), vehicle: saline with Tween-80
[9] = dose: 200.0 mg/kg/injection, schedule: Q01DX009 (ip), vehicle: saline with Tween-80
[10] = dose: 100.0 mg/kg/injection, schedule: Q01DX009 (ip), vehicle: Klucel (hydroxypropylcellulose) (HPC)
[11] = dose: 400.0 mg/kg/injection, schedule: Q01DX009 (ip), vehicle: Klucel (hydroxypropylcellulose) (HPC)
[12] = dose: 100.0 mg/kg/injection, schedule: Q04DX002 (ip), vehicle: saline with Tween-80
[13] = dose: 200.0 mg/kg/injection, schedule: Q04DX002 (ip), vehicle: saline with Tween-80
[14] = dose: 200.0 mg/kg/injection, schedule: Q01DX009 (ip), vehicle: Klucel (hydroxypropylcellulose) (HPC)

SMILES: COc1ccc(CC(C(=O)O)C(Cc2ccc(OC)c(OC)c2)C(=O)O)cc1OC (configuration not stated)
- T/C [1]: 109 % of control
- T/C [2]: 100 % of control
- T/C [3]: 109 % of control

SMILES: CC(C)CC(CC(C)C)NCC(C)OC(=O)c1ccc(N)cc1 (configuration not stated)
- T/C (dose: 6.25 mg/kg/injection, schedule: Q01DX009 (ip), vehicle: saline with Tween-80): 104 % of control
- T/C (dose: 6.25 mg/kg/injection, schedule: Q04DX003 (ip), vehicle: saline with Tween-80): 107 % of control
- T/C [4]: 93 % of control
- T/C (dose: 12.5 mg/kg/injection, schedule: Q04DX003 (ip), vehicle: saline with Tween-80): 114 % of control
- T/C [5]: 104 % of control
- T/C (dose: 25.0 mg/kg/injection, schedule: Q04DX003 (ip), vehicle: saline with Tween-80): 114 % of control
- T/C [6]: 114 % of control

SMILES: CCOC(=O)c1cnc2ccc(OC)cc2c1Cl
- T/C [7]: 95 % of control
- T/C [6]: 91 % of control
- T/C [8]: 111 % of control
- T/C (dose: 100.0 mg/kg/injection, schedule: Q04DX003 (ip), vehicle: saline with Tween-80): 103 % of control
- T/C [9]: 99 % of control
- T/C (dose: 200.0 mg/kg/injection, schedule: Q04DX003 (ip), vehicle: saline with Tween-80): 103 % of control
- T/C (dose: 400.0 mg/kg/injection, schedule: Q01DX009 (ip), vehicle: saline with Tween-80): 96 % of control
- T/C (dose: 400.0 mg/kg/injection, schedule: Q04DX003 (ip), vehicle: saline with Tween-80): 95 % of control

SMILES: CC12CCC(OC3OC(CO)C(O)C(O)C3O)CC1CCC1C2CCC2(C)C(C3=CC(=O)OC3)CCC12O (configuration not stated)
- T/C (dose: 40.0 mg/kg/injection, schedule: Q01DX009 (ip), vehicle: saline): 86 % of control
- T/C (dose: 80.0 mg/kg/injection, schedule: Q01DX009 (ip), vehicle: saline): 86 % of control
- T/C (dose: 160.0 mg/kg/injection, schedule: Q01DX009 (ip), vehicle: saline): 95 % of control

SMILES: CC(=O)Nc1ccc(N=Nc2ccccc2)cc1F
- T/C [10]: 120 % of control
- T/C [1]: 104 % of control
- T/C [2]: 108 % of control
- T/C [11]: 120 % of control
- T/C [3]: 95 % of control

SMILES: C[NH-].C[NH-].[Br][Pt+2][Br]
- T/C (dose: 6.0 mg/kg/injection, schedule: Q04DX003 (ip), vehicle: other): 170 % of control
- T/C (dose: 12.0 mg/kg/injection, schedule: Q04DX003 (ip), vehicle: other): 208 % of control
- T/C (dose: 12.5 mg/kg/injection, schedule: Q04DX003 (ip), vehicle: other): 212 % of control

SMILES: CCCCCCCCCCC(=O)OCC#CC#CCOC(=O)CCCCCCCCCC
- T/C [1]: 104 % of control
- T/C [2]: 104 % of control
- T/C [3]: 100 % of control

SMILES: Nc1ccc(C2=NN(c3ccccc3)CN(c3ccccc3)N2)cc1
- T/C (dose: 100.0 mg/kg/injection, schedule: Q01DX001 (ip), vehicle: saline with Tween-80): 101 % of control
- T/C (dose: 200.0 mg/kg/injection, schedule: Q01DX001 (ip), vehicle: saline with Tween-80): 107 % of control
- T/C (dose: 400.0 mg/kg/injection, schedule: Q01DX001 (ip), vehicle: saline with Tween-80): 102 % of control

SMILES: Cc1cc(C(=O)NN)nn1CCO
- T/C (dose: 87.5 mg/kg/injection, schedule: Q01DX009 (ip), vehicle: saline with Tween-80): 89 % of control
- T/C (dose: 175.0 mg/kg/injection, schedule: Q01DX009 (ip), vehicle: saline with Tween-80): 88 % of control
- T/C (dose: 350.0 mg/kg/injection, schedule: Q01DX009 (ip), vehicle: saline with Tween-80): 114 % of control

SMILES: O=C1N=C(Oc2ccccc2)SC1=O
- T/C [5]: 103 % of control and 104 % of control
- T/C (dose: 50.0 mg/kg/injection, schedule: Q01DX009 (ip), vehicle: saline + alcohol): 113 % of control
- T/C [7]: 95 % of control and 108 % of control
- T/C (dose: 100.0 mg/kg/injection, schedule: Q01DX009 (ip), vehicle: saline + alcohol): 120 % of control
- T/C [8]: 117 % of control and 123 % of control
- T/C (dose: 200.0 mg/kg/injection, schedule: Q01DX009 (ip), vehicle: saline + alcohol): 113 % of control
- T/C [9]: 117 % of control and 121 % of control

SMILES: CCOC(=O)c1cnc2ccc3ccccc3n2c1=O
- T/C (dose: 50.0 mg/kg/injection, schedule: Q04DX002 (ip), vehicle: saline with Tween-80): 101 % of control
- T/C [12]: 101 % of control
- T/C [13]: 93 % of control

SMILES: CN1CCN(C2=Nc3ccccc3Cc3ccccc32)CC1
- T/C [4]: 103 % of control
- T/C [5]: 102 % of control
- T/C [7]: 105 % of control and 108 % of control

SMILES: C/C(=N\N=C(/C)c1ccc(Cl)cc1)c1ccc(Cl)cc1
- T/C [10]: 95 % of control
- T/C [14]: 90 % of control
- T/C [11]: 113 % of control

SMILES: Cc1ccc(-n2c(=S)[nH]c3ccccc3c2=O)cc1C
- T/C [10]: 100 % of control
- T/C [1]: 105 % of control
- T/C [14]: 86 % of control
- T/C [2]: 100 % of control
- T/C [11]: 91 % of control
- T/C [3]: 100 % of control

SMILES: COc1ccccc1NC(=O)Oc1c(C(C)C)cccc1C(C)C
- T/C [1]: 95 % of control
- T/C [2]: 87 % of control
- T/C [3]: 100 % of control

SMILES: NC(=O)c1cc([N+](=O)[O-])ccc1N
- T/C (dose: 100.0 mg/kg/injection, schedule: Q04DX003 (ip), vehicle: saline sonified): 115 % of control
- T/C (dose: 200.0 mg/kg/injection, schedule: Q04DX003 (ip), vehicle: saline sonified): 110 % of control
- T/C (dose: 400.0 mg/kg/injection, schedule: Q04DX003 (ip), vehicle: saline sonified): 120 % of control

SMILES: C=CCn1c(=O)n(CC=C)c(=O)n(CC=C)c1=O
- T/C (dose: 100.0 mg/kg/injection, schedule: Q04DX003 (ip), vehicle: alcohol): 100 % of control
- T/C (dose: 200.0 mg/kg/injection, schedule: Q04DX003 (ip), vehicle: alcohol): 104 % of control
- T/C (dose: 400.0 mg/kg/injection, schedule: Q04DX003 (ip), vehicle: alcohol): 109 % of control

SMILES: CC(C)CCC[C@@H](C)[C@H]1CC[C@H]2[C@@H]3CC=C4C[C@@H](O)CC[C@]4(C)[C@H]3CC[C@]12C
- T/C (dose: 100.0 mg/kg/injection, schedule: Q01DX009 (ip), vehicle: other): 106 % of control
- T/C (dose: 200.0 mg/kg/injection, schedule: Q01DX009 (ip), vehicle: other): 103 % of control
- T/C (dose: 400.0 mg/kg/injection, schedule: Q01DX009 (ip), vehicle: other): 89 % of control
- T/C (dose: 800.0 mg/kg/injection, schedule: Q01DX009 (ip), vehicle: other): 105 % of control

SMILES: c1ccc2c(c1)[nH]c1nc3ncncc3nc12
- T/C (dose: 100.0 mg/kg/injection, schedule: Q04DX003 (ip), vehicle: saline): 122 % of control
- T/C (dose: 200.0 mg/kg/injection, schedule: Q04DX003 (ip), vehicle: saline): 100 % of control
- T/C (dose: 400.0 mg/kg/injection, schedule: Q04DX003 (ip), vehicle: saline): 100 % of control

SMILES: CCC(=O)O[C@H]1CC[C@H]2[C@@H]3CCC4=CC(=O)CC[C@]4(C)[C@H]3CC[C@]12C
- T/C (dose: 100.0 mg/kg/injection, schedule: Q01DX009 (sc), vehicle: steriod suspending solution): 104 % of control
- T/C (dose: 100.0 mg/kg/injection, schedule: Q04DX003 (sc), vehicle: steriod suspending solution): 105 % of control
- T/C (dose: 200.0 mg/kg/injection, schedule: Q01DX009 (sc), vehicle: steriod suspending solution): 87 % of control
- T/C (dose: 200.0 mg/kg/injection, schedule: Q04DX003 (sc), vehicle: steriod suspending solution): 100 % of control
- T/C (dose: 400.0 mg/kg/injection, schedule: Q01DX009 (sc), vehicle: steriod suspending solution): 91 % of control
- T/C (dose: 400.0 mg/kg/injection, schedule: Q04DX003 (sc), vehicle: steriod suspending solution): 100 % of control

SMILES: COc1c2c(cc3oc4ccccc4c(=O)c13)CCCC2=O
- T/C (dose: 50.0 mg/kg/injection, schedule: Q01DX005 (ip), vehicle: Klucel (hydroxypropylcellulose) (HPC)): 90 % of control
- T/C (dose: 200.0 mg/kg/injection, schedule: Q01DX005 (ip), vehicle: Klucel (hydroxypropylcellulose) (HPC)): 88 % of control

SMILES: CCC(=O)/C(=C\c1ccccc1Cl)C(C)=O
- T/C [7]: 108 % of control
- T/C [8]: 116 % of control
- T/C [9]: 120 % of control

SMILES: CSc1nnc(/C=C/c2ccc3c(c2)OCO3)c(=O)n1N
- T/C [12]: 106 % of control
- T/C [13]: 106 % of control

SMILES: COc1ccc(C(O)(CS(C)=O)c2cccs2)cc1 (configuration not stated)
- T/C [8]: 107 % of control
- T/C [9]: 99 % of control

SMILES: OC1CCCCCCCCC1Cl (configuration not stated)
- T/C [5]: 104 % of control
- T/C [7]: 109 % of control
- T/C [8]: 100 % of control

SMILES: O=P(NC1CCCC1)(N1CC1)N1CC1
- T/C (dose: 1.56 mg/kg/injection, schedule: Q01DX009 (ip), vehicle: saline): 116 % of control
- T/C (dose: 6.25 mg/kg/injection, schedule: Q01DX009 (ip), vehicle: saline): 187 % of control and 220 % of control
- T/C (dose: 12.5 mg/kg/injection, schedule: Q01DX009 (ip), vehicle: saline): 91 % of control and 104 % of control
